Reference: patent US12128035B2, “Activating pyruvate kinase R” (Novo Nordisk Health Care AG, priority 2021, dated 2024)

Test system: ATP blood levels
Assay: Phase 1 SAD/MAD: blood ATP (LC-MS/MS) in healthy volunteers
Type: in vivo, human
Protocol: In this study, SAD/MAD cohorts are randomized (3 to 1) to receive Compound 1 or placebo (P). Compound 1 was evaluated first in 4 healthy SAD cohorts and 4 healthy MAD (14-day dosing period) cohorts. Based on the safety, and PK/PD profile from HS, Compound 1 is then evaluated in 1 SCD SAD cohort and 2 SCD MAD cohorts. Specifically, based on the safety and pharmacokinetic/pharmacodynamics (PK/PD) profile in healthy volunteer studies, Compound 1 is evaluated in patients (pts) with SCD, first in a single dose (SD or SAD) cohort and then in multiple-dose (MD or MAD) cohorts (14-day and 12-week). Safety assessments include AEs, vital signs, ECGs and laboratory parameters. PK/PD blood sampling was performed on Day 1 (SAD/MAD) and Day 14 (MAD) and up to 72 h after the last dose and at the end-of-study visit. PD parameters included 2,3-DPG, ATP, and p50 in all cohorts with additional PD studies (including oxygen scan) performed only in the SCD cohorts. PD parameters included 2,3-DPG, ATP, p50, RBC deformability with controlled deoxygenation and reoxygenation (Lorrca® oxygen scan) and varying osmolality (Lorrca® osmoscan)). To maintain study blind, pt identifiers were removed when needed.
In the MAD cohorts, the subjects' blood ATP levels were measured […] by a qualified LC-MS/MS method for the quantitation of ATP in blood. […] Table 20A reports the median percentage change in blood ATP levels, relative to baseline, measured over time after the first dose on days 1 and 14 in healthy volunteers who received daily doses of Compound 1 (100 mg BID, 200 mg BID, 300 mg BID, or 400 mg QD) or placebo for 14 days. Table 20B reports the mean percentage change in ATP blood levels, relative to baseline, measured over time after the first dose on days 1 and 14 in healthy volunteers who received daily doses of Compound 1 (100 mg BID, 200 mg BID, 300 mg BID, or 400 mg QD) for 14 days.
The following procedures are employed for the analysis of ATP and 2,3-DPG in human whole blood K2EDTA using a protein precipitation extraction procedure and analysis by LC-MS/MS.
The following procedures are used for sample extraction prior to analysis via LC-MS/MS. 15.0 μL of the calibration standards, quality controls, matrix blanks, and samples are aliquoted into a 96-well plate. 50.0 μL of the internal standard spiking solution is added to all samples on the plate, with the exception of the matrix blank samples; 50.0 μL of water is added to the matrix blank samples. Subsequently, 150 μL of water is added to all samples on the plate. The plate is then covered and agitated by vortex at high speed for ten minutes, after which 750 μL of methanol is added to all samples on the plate. The plate is covered and agitated by vortex for approximately 1 minute. The plate is then centrifuged at approximately 3500 RPM at approximately 4° C. for five minutes. After centrifugation, a liquid handler is used to transfer 50 μL of each sample to a new 96-well plate, and 200 μL of acetonitrile is added to all samples on the plate. The newly prepared plate is covered and agitated by vortex for approximately 1 minute. The plate is then centrifuged at approximately 3500 RPM at approximately 4° C. for 2 minutes.

[1] = HV 100 mg BID, Day 1, 0 h after first daily dose
[2] = HV 100 mg BID, Day 1, 6 h after first daily dose
[3] = HV 100 mg BID, Day 1, 8 h after first daily dose
[4] = HV 100 mg BID, Day 1, 12 h after first daily dose
[5] = HV 100 mg BID, Day 1, 16 h after first daily dose
[6] = HV 100 mg BID, Day 1, 24 h after first daily dose
[7] = HV 100 mg BID, Day 14, 0 h after first daily dose
[8] = HV 100 mg BID, Day 14, 6 h after first daily dose
[9] = HV 100 mg BID, Day 14, 8 h after first daily dose
[10] = HV 100 mg BID, Day 14, 12 h after first daily dose
[11] = HV 100 mg BID, Day 14, 16 h after first daily dose
[12] = HV 100 mg BID, Day 14, 24 h after first daily dose
[13] = HV 100 mg BID, Day 14, 48 h after first daily dose
[14] = HV 100 mg BID, Day 14, 72 h after first daily dose
[15] = HV 200 mg BID, Day 1, 0 h after first daily dose
[16] = HV 200 mg BID, Day 1, 6 h after first daily dose
[17] = HV 200 mg BID, Day 1, 8 h after first daily dose
[18] = HV 200 mg BID, Day 1, 12 h after first daily dose
[19] = HV 200 mg BID, Day 1, 16 h after first daily dose
[20] = HV 200 mg BID, Day 1, 24 h after first daily dose
[21] = HV 200 mg BID, Day 14, 0 h after first daily dose
[22] = HV 200 mg BID, Day 14, 6 h after first daily dose
[23] = HV 200 mg BID, Day 14, 8 h after first daily dose
[24] = HV 200 mg BID, Day 14, 12 h after first daily dose
[25] = HV 200 mg BID, Day 14, 16 h after first daily dose
[26] = HV 200 mg BID, Day 14, 24 h after first daily dose
[27] = HV 200 mg BID, Day 14, 48 h after first daily dose
[28] = HV 200 mg BID, Day 14, 72 h after first daily dose
[29] = HV 300 mg BID, Day 1, 0 h after first daily dose
[30] = HV 300 mg BID, Day 1, 6 h after first daily dose
[31] = HV 300 mg BID, Day 1, 8 h after first daily dose
[32] = HV 300 mg BID, Day 1, 12 h after first daily dose
[33] = HV 300 mg BID, Day 1, 16 h after first daily dose
[34] = HV 300 mg BID, Day 1, 24 h after first daily dose
[35] = HV 300 mg BID, Day 14, 0 h after first daily dose
[36] = HV 300 mg BID, Day 14, 6 h after first daily dose
[37] = HV 300 mg BID, Day 14, 8 h after first daily dose
[38] = HV 300 mg BID, Day 14, 12 h after first daily dose
[39] = HV 300 mg BID, Day 14, 16 h after first daily dose
[40] = HV 300 mg BID, Day 14, 24 h after first daily dose
[41] = HV 300 mg BID, Day 14, 48 h after first daily dose
[42] = HV 300 mg BID, Day 14, 72 h after first daily dose
[43] = HV 400 mg QD, Day 1, 0 h after first daily dose
[44] = HV 400 mg QD, Day 1, 6 h after first daily dose
[45] = HV 400 mg QD, Day 1, 8 h after first daily dose
[46] = HV 400 mg QD, Day 1, 12 h after first daily dose

O=C([C@H](CO)c1ccccc1)N1CC2=C(C1)CN(S(=O)(=O)c1cnc3c(c1)OCCO3)C2 (single isomer, unassigned) [Compound 1]
Mean Percentage Change in ATP Levels [1]: 0%
Median Percentage Change in ATP Levels [1]: 0%
Mean Percentage Change in ATP Levels [2]: −5.6%
Median Percentage Change in ATP Levels [2]: −5.7%
Mean Percentage Change in ATP Levels [3]: −2.0%
Median Percentage Change in ATP Levels [3]: 0.0%
Mean Percentage Change in ATP Levels [4]: −0.6%
Median Percentage Change in ATP Levels [4]: −1.2%
Mean Percentage Change in ATP Levels [5]: 1.9%
Median Percentage Change in ATP Levels [5]: 3.3%
Mean Percentage Change in ATP Levels [6]: 4.4%
Median Percentage Change in ATP Levels [6]: 5.7%
Mean Percentage Change in ATP Levels [7]: 49%
Median Percentage Change in ATP Levels [7]: 42%
Mean Percentage Change in ATP Levels [8]: 45%
Median Percentage Change in ATP Levels [8]: 44%
Mean Percentage Change in ATP Levels [9]: 49%
Median Percentage Change in ATP Levels [9]: 48%
Mean Percentage Change in ATP Levels [10]: 45%
Median Percentage Change in ATP Levels [10]: 45%
Mean Percentage Change in ATP Levels [11]: 47%
Median Percentage Change in ATP Levels [11]: 45%
Mean Percentage Change in ATP Levels [12]: 55%
Median Percentage Change in ATP Levels [12]: 55%
Mean Percentage Change in ATP Levels [13]: 51%
Median Percentage Change in ATP Levels [13]: 52%
Mean Percentage Change in ATP Levels [14]: 47%
Median Percentage Change in ATP Levels [14]: 49%
Mean Percentage Change in ATP Levels [15]: 0%
Median Percentage Change in ATP Levels [15]: 0%
Mean Percentage Change in ATP Levels [16]: 1.7%
Median Percentage Change in ATP Levels [16]: −4.3%
Mean Percentage Change in ATP Levels [17]: 4.7%
Median Percentage Change in ATP Levels [17]: 5.4%
Mean Percentage Change in ATP Levels [18]: 6.7%
Median Percentage Change in ATP Levels [18]: 4.3%
Mean Percentage Change in ATP Levels [19]: 5.6%
Median Percentage Change in ATP Levels [19]: 6.0%
Mean Percentage Change in ATP Levels [20]: −0.2%
Median Percentage Change in ATP Levels [20]: 1.1%
Mean Percentage Change in ATP Levels [21]: 59%
Median Percentage Change in ATP Levels [21]: 62%
Mean Percentage Change in ATP Levels [22]: 50%
Median Percentage Change in ATP Levels [22]: 48%
Mean Percentage Change in ATP Levels [23]: 56%
Median Percentage Change in ATP Levels [23]: 58%
Mean Percentage Change in ATP Levels [24]: 56%
Median Percentage Change in ATP Levels [24]: 56%
Mean Percentage Change in ATP Levels [25]: 53%
Median Percentage Change in ATP Levels [25]: 57%
Mean Percentage Change in ATP Levels [26]: 66%
Median Percentage Change in ATP Levels [26]: 65%
Mean Percentage Change in ATP Levels [27]: 62%
Median Percentage Change in ATP Levels [27]: 70%
Mean Percentage Change in ATP Levels [28]: 57%
Median Percentage Change in ATP Levels [28]: 54%
Mean Percentage Change in ATP Levels [29]: 0%
Median Percentage Change in ATP Levels [29]: 0%
Mean Percentage Change in ATP Levels [30]: −4.5%
Median Percentage Change in ATP Levels [30]: −7.6%
Mean Percentage Change in ATP Levels [31]: −2.0%
Median Percentage Change in ATP Levels [31]: −2.4%
Mean Percentage Change in ATP Levels [32]: −0.6%
Median Percentage Change in ATP Levels [32]: 0.9%
Mean Percentage Change in ATP Levels [33]: −0.5%
Median Percentage Change in ATP Levels [33]: −1.1%
Mean Percentage Change in ATP Levels [34]: 2.2%
Median Percentage Change in ATP Levels [34]: 1.8%
Mean Percentage Change in ATP Levels [35]: 46%
Median Percentage Change in ATP Levels [35]: 46%
Mean Percentage Change in ATP Levels [36]: 51%
Median Percentage Change in ATP Levels [36]: 51%
Mean Percentage Change in ATP Levels [37]: 52%
Median Percentage Change in ATP Levels [37]: 50%
Mean Percentage Change in ATP Levels [38]: 49%
Median Percentage Change in ATP Levels [38]: 51%
Mean Percentage Change in ATP Levels [39]: 52%
Median Percentage Change in ATP Levels [39]: 53%
Mean Percentage Change in ATP Levels [40]: 56%
Median Percentage Change in ATP Levels [40]: 52%
Mean Percentage Change in ATP Levels [41]: 57%
Median Percentage Change in ATP Levels [41]: 58%
Mean Percentage Change in ATP Levels [42]: 48%
Median Percentage Change in ATP Levels [42]: 49%
Mean Percentage Change in ATP Levels [43]: 0%
Median Percentage Change in ATP Levels [43]: 0%
Mean Percentage Change in ATP Levels [44]: −1.2%
Median Percentage Change in ATP Levels [44]: −1.7%
Mean Percentage Change in ATP Levels [45]: −2.9%
Median Percentage Change in ATP Levels [45]: −4.5%
Mean Percentage Change in ATP Levels [46]: 2.4%
Median Percentage Change in ATP Levels [46]: 3.5%
Mean Percentage Change in ATP Levels (HV 400 mg QD, Day 1, 16 h after first daily dose): −2.2%
